ChEMBL document CHEMBL1154101, “Purinergic P2X(7) receptor antagonists: Chemistry and fundamentals of biological screening” (Bioorg Med Chem, 2009)

Assays:
P2X purinoceptor 7 [1] = molecular target: T1, P2X purinoceptor 7 (Homo sapiens, UniProt Q99572); test: Antagonist activity at human recombinant P2X7 receptor expressed in human 1321N1 cells assessed as inhibition of BzATP-induced pore formation flux by fluorometric assay; assay type: functional, cell-based
T1 sequence (Q99572 whole entry): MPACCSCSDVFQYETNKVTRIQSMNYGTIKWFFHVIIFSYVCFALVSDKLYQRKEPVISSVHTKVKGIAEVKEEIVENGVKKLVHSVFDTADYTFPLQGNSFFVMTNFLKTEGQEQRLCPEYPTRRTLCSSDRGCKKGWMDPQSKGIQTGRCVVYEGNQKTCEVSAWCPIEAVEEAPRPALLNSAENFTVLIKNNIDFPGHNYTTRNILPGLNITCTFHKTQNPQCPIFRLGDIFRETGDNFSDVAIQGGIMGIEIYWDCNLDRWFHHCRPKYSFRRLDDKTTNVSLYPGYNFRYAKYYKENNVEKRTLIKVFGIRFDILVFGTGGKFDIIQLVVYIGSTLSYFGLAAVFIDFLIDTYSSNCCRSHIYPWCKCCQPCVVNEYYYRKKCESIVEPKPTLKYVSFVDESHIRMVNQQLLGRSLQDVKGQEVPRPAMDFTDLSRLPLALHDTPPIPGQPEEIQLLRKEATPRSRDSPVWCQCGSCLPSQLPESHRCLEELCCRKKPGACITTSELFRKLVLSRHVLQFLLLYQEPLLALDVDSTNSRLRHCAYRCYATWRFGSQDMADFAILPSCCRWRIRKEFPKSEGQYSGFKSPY

P2X purinoceptor 7 [2] = molecular target: T1, P2X purinoceptor 7; test: Antagonist activity at human recombinant P2X7 receptor expressed in human THP1 cells assessed as inhibition of BzATP-induced IL1-beta release by enzyme-linked immunosorbent assay; assay type: functional, cell-based, THP-1
P2X purinoceptor 7 [3] = molecular target: T1, P2X purinoceptor 7; test: Antagonist activity at P2X7 receptor in human THP1 cells assessed as inhibition of BzATP-induced pore formation; assay type: functional, cell-based, THP-1
P2X purinoceptor 7 [4] = molecular target: T2, P2X purinoceptor 7 (Rattus norvegicus, UniProt Q64663); test: Binding affinity at rat P2X7 receptor
T2 sequence (Q64663 whole entry): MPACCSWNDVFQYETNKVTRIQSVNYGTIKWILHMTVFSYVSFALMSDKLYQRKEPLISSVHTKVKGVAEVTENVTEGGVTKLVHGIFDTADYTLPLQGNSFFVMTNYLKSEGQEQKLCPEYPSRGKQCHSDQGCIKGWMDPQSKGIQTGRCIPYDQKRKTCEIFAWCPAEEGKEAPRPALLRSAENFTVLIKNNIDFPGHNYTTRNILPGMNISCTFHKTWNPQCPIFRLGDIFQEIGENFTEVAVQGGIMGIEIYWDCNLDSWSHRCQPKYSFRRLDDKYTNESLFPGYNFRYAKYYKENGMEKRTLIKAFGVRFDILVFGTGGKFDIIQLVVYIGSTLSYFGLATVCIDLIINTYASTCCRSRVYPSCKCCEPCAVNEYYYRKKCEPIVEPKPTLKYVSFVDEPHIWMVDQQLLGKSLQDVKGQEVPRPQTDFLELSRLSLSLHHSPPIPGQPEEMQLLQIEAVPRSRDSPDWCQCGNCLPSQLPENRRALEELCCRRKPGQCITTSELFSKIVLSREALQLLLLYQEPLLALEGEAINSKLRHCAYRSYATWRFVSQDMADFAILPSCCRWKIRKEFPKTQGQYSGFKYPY

Structure (SMILES) | IC50 (P2X purinoceptor 7 [3]) [µM] | also measured
COc1ccc(CC(=O)NC(N/C(=N/C#N)Nc2cccc3ncccc23)C(C)(C)C)cc1OC (stereo unspecified) | – | IC50 (P2X purinoceptor 7 [1]): 0.092 µM; IC50 (P2X purinoceptor 7 [2]): 0.156 µM
CN([C@@H](Cc1ccc(OS(=O)(=O)c2cccc3cnccc23)cc1)C(=O)N1CCN(c2ccccc2)CC1)S(=O)(=O)c1cccc2cnccc12 | 0.3 | –
[3H]c1ccc([C@H](C)N/C(=N/C#N)Nc2cccc3ncccc23)cc1 | – | IC50 (P2X purinoceptor 7 [4]): 0.01 µM
N=C1N[C@@H]2O[C@@H]3NC(=N)N[C@]34[C@H]([C@H](CNC(=O)c3cc(Br)c(Br)[nH]3)[C@@H](CNC(=O)c3cc(Br)c(Br)[nH]3)[C@@H]4O[C@H]3[C@H](CNC(=O)c4cc(Br)c(Br)[nH]4)[C@@H](CNC(=O)c4cc(Br)c(Br)[nH]4)[C@@H]4[C@]5(O)NC(=N)N[C@@H]5O[C@@H]5NC(=N)N[C@]453)[C@]2(O)N1 [STYLISSADINE A] | 0.7 | –
N=C1N[C@@H]2O[C@@H]3NC(=N)N[C@]34[C@H]([C@H](CNC(=O)c3cc(Br)c(Br)[nH]3)[C@@H](CNC(=O)c3cc(Br)c(Br)[nH]3)[C@@H]4O[C@H]3[C@H](CNC(=O)c4cc(Br)c(Br)[nH]4)[C@@H](CNC(=O)c4cc(Br)c(Br)[nH]4)[C@H]4[C@]5(O)NC(=N)N[C@@H]5O[C@@H]5NC(=N)N[C@]534)[C@]2(O)N1 [STYLISSADINE B] | 1.8 | –
